tested on: ring stage parasites; test: Parasite growth potency assay, 72 hours, LDH readout; format: cell-based; conditions: 72 h, parasite growth measured by LDH assay after 72 hours at 37° C.; 0.7% rings, 2% haematocrit; read-out: EC50
Outline: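 Parasite growth was quantified by LDH assay after a −80 °C freeze-thaw. Before that, compound was incubated for 72 h at 37 °C under humidified gas with ring-stage cultures adjusted to 0.7% parasitemia and 2% haematocrit in serum- and albumax-supplemented RPMI-Hepes.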

Row | SMILES | EC50
1 | CCC1(CC)CC(=O)N([C@H](C)c2cccc(C(=O)N[C@@H]3c4ccccc4OC[C@@]3(C)O)c2)C(=N)N1 [Example 205A, [4,4-diethyl-1-[(1R)-1-[3-[[(3S,4R)-3-hydroxy-3-methyl-chroman-4-yl]carbamoyl]phenyl]ethyl]-6-oxo-hexahydropyrimidin-2-ylidene]ammonium; 2,2,2-trifluoroacetate] | 1.1 nM
2 | CC[C@H](c1cccc(C(=O)N[C@@H]2c3ccccc3OC[C@@]2(C)O)c1)N1C(=N)NC(CC)(CC)CC1=O [Example 206A, 3-[1-(4,4-diethyl-2-imino-6-oxo-hexahydropyrimidin-1-yl)propyl]-N-[(3S,4R)-3-hydroxy-3-methyl-chroman-4-yl]benzamide] | 1 nM
3 | CC[C@H](c1cccc(C(=O)N[C@@H]2c3ccccc3OC(C)(C)[C@H]2O)c1)N1C(=N)NC(CC)(CC)CC1=O [Example 207A, [4,4-diethyl-1-[1-[3-[[(3S,4R)-3-hydroxy-2,2-dimethyl-chroman-4-yl]carbamoyl]phenyl]propyl]-6-oxo-hexahydropyrimidin-2-ylidene]ammonium; 2,2,2-trifluoroacetate] | 0.3 nM
4 | CC[C@@H](c1cccc(C(=O)N[C@@H]2c3ccccc3OC(C)(C)[C@H]2O)c1)N1C(=N)NC(CC)(CC)CC1=O [Example 207B, [4,4-diethyl-1-[1-[3-[[(3S,4R)-3-hydroxy-2,2-dimethyl-chroman-4-yl]carbamoyl]phenyl]propyl]-6-oxo-hexahydropyrimidin-2-ylidene]ammonium; 2,2,2-trifluoroacetate] | 72 nM
5 | CC[C@H](c1cccc(C(=O)N[C@@H]2c3ccccc3C[C@H]2O)c1)N1C(=N)NC(CC)(CC)CC1=O [Example 208, [4,4-diethyl-1-[1-[3-[[(1R,2R)-2-hydroxyindan-1-yl]carbamoyl]phenyl]propyl]-6-oxo-hexahydropyrimidin-2-ylidene]ammonium; 2,2,2-trifluoroacetate] | 0.7 nM
6 | C#CCC[C@H](c1cccc(C(=O)N[C@H]2CCOc3ccccc32)c1)N1C(=N)NC(CC)(CC)CC1=O [Example 209, [1-[1-[3-LL(4R)-chroman-4-yl]carbamoyl]phenyl]pent-4-ynyl]-4,4-diethyl-6-oxo-hexahydropyrimidin-2-ylidene]ammonium; 2,2,2-trifluoroacetate] | 8.9 nM
7 | C#CCCC[C@H](c1cccc(C(=O)N[C@H]2CCOc3ccccc32)c1)N1C(=N)NC(CC)(CC)CC1=O [Example 210A, [1-[1-[3-[[(4S)-chroman-4-yl]carbamoyl]phenyl]hex-5-ynyl]-4,4-diethyl-6-oxo-hexahydropyrimidin-2-ylidene]ammonium; 2,2,2-trifluoroacetate] | 0.7 nM
8 | C#CCC[C@@H](c1cccc(C(=O)NC2CC(C)(C)Oc3ccccc32)c1)N1C(=N)NC(CC)(CC)CC1=O (stereo partly drawn) [Example 214A, 3-[(1S)-1-(4,4-diethyl-2-imino-6-oxo-hexahydropyrimidin-1-yl)pent-4-ynyl]-N-(2,2-dimethylchroman-4-yl)benzamide] | 26.3 nM
9 | C#CCC[C@H](c1cccc(C(=O)N[C@H]2CC(C)(C)Oc3ccccc32)c1)N1C(=N)NC(CC)(CC)CC1=O [Example 214C, 3-[(1R)-1-(4,4-diethyl-2-imino-6-oxo-hexahydropyrimidin-1-yl)pent-4-ynyl]-N-(2,2-dimethylchroman-4-yl)benzamide] | 0.4 nM
10 | CCC1(CC)CC(=O)N(Cc2cccc(C(=O)N[C@@H]3CCOc4ccc(Cl)cc43)c2)C(=N)N1 [Example 215A, N-(6-chlorochroman-4-yl)-3-[(4,4-diethyl-2-imino-6-oxo-hexahydropyrimidin-1-yl)methyl]benzamide] | 70 nM
11 | C[C@H](c1cccc(C(=O)NC2c3ccccc3OC(C)(C)C2(C)O)c1)N1C(=N)NC(C)(C)CC1=O (stereo partly drawn) [Example 222, N-(3-hydroxy-2,2,3-trimethyl-chroman-4-yl)-3-[(1R)-1-(2-imino-4,4-dimethyl-6-oxo-hexahydropyrimidin-1-yl)ethyl]benzamide] | 2.28 nM
12 | CCC1(CC)CC(=O)N(C(COC)c2cccc(C(=O)N[C@@H]3c4ccccc4C[C@H]3O)c2)C(=N)N1 (stereo partly drawn) [Example 223, 3-[1-(4,4-diethyl-2-imino-6-oxo-hexahydropyrimidin-1-yl)-2-methoxy-ethyl]-N-[(1R,2R)-2-hydroxyindan-1-yl]benzamide] | 2.3 nM
13 | CC1(C)CC(=O)N(C(CC(F)(F)F)c2cccc(C(=O)N[C@@H]3c4ccccc4C[C@H]3O)c2)C(=N)N1 (stereo partly drawn) [Example 224, N-[(1R,2R)-2-hydroxyindan-1-yl]-3-[3,3,3-trifluoro-1-(2-imino-4,4-dimethyl-6-oxo-hexahydropyrimidin-1-yl)propyl]benzamide] | 15.5 nM
14 | CC[C@]1(C)CC(=O)N([C@H](C)c2cccc(C(=O)NC3c4ccccc4OC(C)(C)C3(C)O)c2)C(=N)N1 (stereo partly drawn) [Example 225, 3-[(1R)-1-[(4R)-4-ethyl-2-imino-4-methyl-6-oxo-hexahydropyrimidin-1-yl]ethyl]-N-(3-hydroxy-2,2,3-trimethyl-chroman-4-yl)benzamide] | 0.32 nM
15 | CCC1(CC)CC(=O)N([C@H](CCOC)c2cccc(C(=O)NC3c4ccccc4CCC3O)c2)C(=N)N1 (stereo partly drawn) [Example 226, 3-[(1R)-1-(4,4-diethyl-2-imino-6-oxo-hexahydropyrimidin-1-yl)-3-methoxy-propyl]-N-(2-hydroxytetralin-1-yl)benzamide] | 2.2 nM
16 | CCC1(CC)NC(=N)N([C@H](CCOC)c2cccc(C(=O)N[C@@H]3c4ccccc4C[C@H]3O)c2)C(=O)C1C (stereo partly drawn) [Example 227A, 3-[(1R)-1-(4,4-diethyl-2-imino-5-methyl-6-oxo-hexahydropyrimidin-1-yl)-3-methoxy-propyl]-N-[(1R,2R)-2-hydroxyindan-1-yl]benzamide] | 1.25 nM
17 | CCC1(CC)CC(=O)N([C@H](C)c2cccc(C(=O)N[C@@H]3c4ccccc4OC(C)(C)[C@@]3(C)O)c2)C(=N)N1 [Example 228, 3-[(1R)-1-(4,4-diethyl-2-imino-6-oxo-hexahydropyrimidin-1-yl)ethyl]-N-[(3S,4R)-3-hydroxy-2,2,3-trimethyl-chroman-4-yl]benzamide] | 0.34 nM
18 | CCC1(CC)CC(=O)N(C(COC)c2cccc(C(=O)N[C@@H]3c4ccccc4OC[C@]3(C)O)c2)C(=N)N1 (stereo partly drawn) [Example 229, 3-[1-(4,4-diethyl-2-imino-6-oxo-hexahydropyrimidin-1-yl)-2-methoxy-ethyl]-N-[(3R,4R)-3-hydroxy-3-methyl-chroman-4-yl]benzamide] | 2.2 nM
19 | COCC[C@H](c1cccc(C(=O)N[C@@H]2c3ccccc3OC(C)(C)[C@@]2(C)O)c1)N1C(=N)NC(C)(C)CC1=O [Example 231, N-[(3S,4R)-3-hydroxy-2,2,3-trimethyl-chroman-4-yl]-3-[(1R)-1-(2-imino-4,4-dimethyl-6-oxo-hexahydropyrimidin-1-yl)-3-methoxy-propyl]benzamide] | 2.9 nM
20 | CCC1(CC)CC(=O)N(C(COC)c2cccc(C(=O)N[C@@H]3c4ccccc4OC(C)(C)[C@H]3O)c2)C(=N)N1 (stereo partly drawn) [Example 232, 3-[l-(4,4-diethyl-2-imino-6-oxo-hexahydropyrimidin-1-yl)-2-methoxy-ethyl]-N-[(3S,4R)-3-hydroxy-2,2-dimethyl-chroman-4-yl]benzamide] | 0.32 nM

same assay, conditions: parasite growth measured by LDH assay after 72 hours at 37° C.; 0.7% rings, 2% haematocrit; read-out: EC50

Row | SMILES | EC50
21 | C#CCCC(c1cccc(C(=O)NC2CC(C)(C)Oc3ccccc32)c1)N1C(=N)NC(CC)(CC)CC1=O [Example 214B, 3-[(1R)-1-(4,4-diethyl-2-imino-6-oxo-hexahydropyrimidin-1-yl)pent-4-ynyl]-N-(2,2-dimethylchroman-4-yl)benzamide] | 31.2 nM
22 | CCC1(CC)NC(=N)N([C@H](CCOC)c2cccc(C(=O)N[C@@H]3c4ccccc4C[C@H]3O)c2)C(=O)C1C (stereo partly drawn) [Example 227B, 3-[(1R)-1-(4,4-diethyl-2-imino-5-methyl-6-oxo-hexahydropyrimidin-1-yl)-3-methoxy-propyl]-N-[(1R,2R)-2-hydroxyindan-1-yl]benzamide] | 1.16 nM
23 | CCC1(CC)CC(=O)N(C(COC)c2cccc(C(=O)N[C@@H]3c4ccccc4OC[C@@]3(C)O)c2)C(=N)N1 (stereo partly drawn) [Example 230, 3-[l-(4,4-diethyl-2-imino-6-oxo-hexahydropyrimidin-1-yl)-2-methoxy-ethyl]-N-[(3S,4R)-3-hydroxy-3-methyl-chroman-4-yl]benzamide] | 0.84 nM

same assay, conditions: parasite growth measured by LDH assay after 72 hours at 37° C.; 0.7% rings, 2% haematocrit; trifluoroacetate; read-out: EC50

Row | SMILES | EC50
24 | CCC1(CC)CC(=O)N([C@H](C)c2cccc(C(=O)N[C@@H]3c4ccccc4OC[C@]3(C)O)c2)C(=N)N1 [Example 205B, [4,4-diethyl-1-[(1R)-1-[3-[[(3R,4R)-3-hydroxy-3-methyl-chroman-4-yl]carbamoyl]phenyl]ethyl]-6-oxo-hexahydropyrimidin-2-ylidene]ammonium; 2,2,2-trifluoroacetate] | 1.9 nM
25 | CC[C@H](c1cccc(C(=O)N[C@@H]2c3ccccc3OC[C@]2(C)O)c1)N1C(=N)NC(CC)(CC)CC1=O [Example 206B, [4,4-diethyl-1-[1-[3-[[(3R,4R)-3-hydroxy-3-methyl-chroman-4-yl]carbamoyl]phenyl]propyl]-6-oxo-hexahydropyrimidin-2-ylidene]ammonium; 2,2,2-trifluoroacetate] | 0.7 nM
26 | C#CCCCC(c1cccc(C(=O)N[C@@H]2CCOc3ccccc32)c1)N1C(=N)NC(CC)(CC)CC1=O (stereo partly drawn) [Example 210B, [1-[1-[3-[[(4R)-chroman-4-yl]carbamoyl]phenyl]hex-5-ynyl]-4,4-diethyl-6-oxo-hexahydropyrimidin-2-ylidene]ammonium; 2,2,2-trifluoroacetate] | 2.3 nM
27 | C#CCCCC(c1cccc(C(=O)NC2CCOc3ccccc32)c1)N1C(=N)NC(CC)(CC)CC1=O [Example 210C, [1-[1-[3-[[(4S)-chroman-4-yl]carbamoyl]phenyl]hex-5-ynyl]-4,4-diethyl-6-oxo-hexahydropyrimidin-2-ylidene]ammonium; 2,2,2-trifluoroacetate] | 6.9 nM

Source: patent US12629374B2, “Antimalarial agents” (Merck Sharp & Dohme LLC, priority 2020, dated 2026)
